{
  "source": "paper PMC7374170",
  "about": "“TRIB3-EGFR interaction promotes lung cancer progression and defines a therapeutic target” (Nature Communications, 2020)",
  "key": {"[1]": {"set-up": "species or system BALB/c nude mice", "conditions": "mouse, in vivo", "method": "twice a week for 4 weeks. […] Data are means ± SEM of 3 independent assays. […] CALM: Calmodulin. […] Lung cancer cells were isolated from PDX mice by using the […] One week after tumor inoculation, mice were […] or pemetrexed (100 mg kg-1, once a day). Tumor growth was monitored twice weekly with a caliper. Tumor volume (T ) was calculated using the formula: T =0.5×L×W 2. Mice survival V V […] signs of distress. […] Generation of Stable Cell Lines To establish cell populations stably expressing TRIB3-shRNA1/2, or the Control-shRNA, cells were transfected with TRIB3-shRNA1/2 or the Control-shRNA expressing plasmids. Stable transfectants were selected in medium containing hygromycin. […] (Supplementary Fig. 9a)."}, "[2]": {"tested_on": "colonic mucosal epithelial cells (NCM460)", "protocol": "(§1) anti-HA Ab and blotted with indicated Abs. c, Cell viability of indicated cells treated with\n(§2) Data are means ± SEM of 3 independent assays. d,\n(§3) CCK-8 was conducted to detect the cell viability in cell proliferation and cytotoxicity assays\n(§4) according to the manufacturer’s instructions (Dojindo Inc., Kumamoto, Japan). Cells were\n(§5) plated in 96-well plates, starting at 3,000 cells/well. For cytotoxicity assay, the cells were\n(§6) treated with indicated drugs, then a mixture of 10 µl CCK-8 solution and 90 µl complete culture\n(§7) medium was added into each well. After 1 hr of incubation, the absorbance was measured at"}, "[3]": {"tested_on": "bronchial epithelial cells (BEAS-2B)", "protocol": "as §1, §2, §3, §4, §5, §6, §7"}, "[4]": {"assay": "In vitro plasma stability assay", "conditions": "normalised to 100 at 0 min", "protocol": "The in vitro stability of the peptide was studied in rat plasma. The rat blood was collected by\nretroorbital puncture and plasma was harvested after centrifugation (2,500×g, 5 min, 4℃) and\nstored at -70℃. The reactions were initiated by adding the test peptide to 100 µl of preheated\nplasma solution to yield a final concentration of 4 mM. The plasma solutions were incubated\nfor indicated times and added 200 µl acetonitrile to deproteinize the plasma. The samples were\nsubjected to vortex mixing for 1 min and centrifugation for 15 min (14,000 rpm, 4℃). Peptide\nconcentration in supernatants was determined by reversed-phase HPLC with electrospray"}, "[5]": {"assay": "In vivo bio-distribution and clearance of FAM-labeled peptide (IVIS)", "conditions": "FAM-labeled peptides, bolus tail vein injection 2 mg kg-1, male athymic BALB/c nude mice", "method": "detected by Exactive™ Plus Orbitrap (Thermo Fisher Scientific, USA).\nIn vitro plasma stability assay\nThe rat blood was collected by\nThe plasma solutions were incubated […]\nionization mass spectrometric detection. The values represent the mean of 3 independent assays.\nIn vivo bio-distribution and clearance of peptide\nOH, USA). Data was analyzed by the built-in software."}, "[6]": {"tested_on": "cell surface EGFR in NCI-H157 cells", "assay": "Cell surface EGFR by flow cytometry, NCI-H157", "type": "cell-based, human", "conditions": "TRIB3-overexpressing NCI-H157 cells, 10 µM monensin 4 hr, EGF 100 ng ml-1 1 hr", "method": "Supplementary Figure 2 Overexpression of TRIB3 promotes EGFR recycling. […]\na, NCI-H157 cells and NCI-H157 cells stably expressed TRIB3 were non-stimulated or EGF […]\n(100 ng ml-1) stimulated for indicated times. Co-localization of EGFR with EEA1 was analyzed […]\nwith confocal microscopy, quantification of EGFR and EEA1 colocalization was shown as […]\nPearson’s coefﬁcient. Data are means ± SEM of 3 independent assays. b, Gating strategy to […]\ndetermine surface EGFR level presented in figure 2d and supplementary figure 2c. c, […]\nQuantitative analyses of cell surface EGFR in NCI-H157 cells stably expressed Empty-Vector […]\nor TRIB3-HA expression plasmid. Cells were pre-incubated with DM SO or 10 µM monensin […]\ncell surface was detected by flow cytometry analysis. […]\ndetected in NCI-H157 cells with or without TRIB3-HA stably ectopic expression (d); or in NCI- […]\nlocalization of EGFR with Rab11 and LAMP1. Quantification of EGFR/Rab11 or […]\n3 independent assays. Statistical significance between two groups was determined with two- […]\ntailed Student’s t-test. Statistical significance among groups was determined by one-way ANOVA test. […]\nLive cells were stained with Alexa-Fluro 488 anti-EGFR antibody (Santa Cruz, R-1, #sc-101 AF488, 1:100). Analysis was performed using a PARTEC EPICSXL (Germany) and data was analyzed using FCS Express 6. […]"}, "A549 cells": {"tested_on": "A549 cells", "assay": "CCK-8 cell viability / cytotoxicity, A549", "type": "cell-based", "conditions": "Homo sapiens, read-out: IC50 of pemetrexed, A549, before sensitization", "protocol": "as §3, §4, §5, §6, §7"}, "NCI-H1975 cells": {"tested_on": "NCI-H1975 cells", "assay": "CCK-8 cell viability / cytotoxicity, NCI-H1975", "type": "cell-based", "conditions": "Homo sapiens", "protocol": "as §3, §4, §5, §6, §7"}},
  "note": "pIC50: −log10 of the molar value. Like-named read-outs stand apart in the source and are kept apart here. Bridge positions count the residues as written; N and C are the ends. Square brackets hold non-standard residues; d marks the D form. Peptide text beside a SMILES is read from it. S5 = C=CCCC[C@](C)(N)C(=O)O",
  "data": [
    {"compound": "CC[C@H](C)[C@@H]1NC(=O)[C@@](C)(NC(=O)[C@H](CC(C)C)NC(=O)[C@H](CC(C)C)NC(=O)[C@H](C)NC(=O)[C@H](CCC(N)=O)NC(=O)[C@@H](N)CC(N)=O)CCCC=CCCC[C@@](C)(C(=O)N[C@H](C(=O)N[C@@H](CCC(=O)O)C(=O)N[C@@H](Cc2ccccc2)C(=O)N[C@@H](CCCCN)C(=O)N[C@@H](CCCCN)C(=O)O)[C@@H](C)O)NC(=O)[C@H](CCCNC(=N)N)NC(=O)[C@H](CC(C)C)NC1=O", "note": "[SAH-JGZ4] (H-NQALL[S5]ILR[S5]TEFKK-OH; staple 6-10)", "values": [
      {"measurement": "EGFR and HER2 expression in the heart", "setting": "[1]", "value": "did not cause reductions in"},
      {"measurement": "cell viability, NCM460", "setting": "[2]", "value": "had no effect on the cell viability"},
      {"measurement": "cell viability, HaCaT", "setting": "keratinocytes (HaCaT)", "value": "had no effect on the cell viability"},
      {"measurement": "cell viability, BEAS-2B", "setting": "[3]", "value": "had no effect on the cell viability"},
      {"measurement": "peptide remaining", "setting": "[4]; 450 min, replicate 1", "value": 113.749},
      {"measurement": "peptide remaining", "setting": "[4]; 450 min, replicate 2", "value": 125.15},
      {"measurement": "peptide remaining", "setting": "[4]; 450 min, replicate 3", "value": 119.761},
      {"measurement": "peptide remaining", "setting": "[4]; 540 min, replicate 1", "value": 115.041},
      {"measurement": "peptide remaining", "setting": "[4]; 540 min, replicate 2", "value": 121.067},
      {"measurement": "peptide remaining", "setting": "[4]; 540 min, replicate 3", "value": 118.562},
      {"measurement": "peptide remaining", "setting": "[4]; 630 min, replicate 1", "value": 106.23},
      {"measurement": "peptide remaining", "setting": "[4]; 630 min, replicate 2", "value": 116.53},
      {"measurement": "peptide remaining", "setting": "[4]; 630 min, replicate 3", "value": 116.365},
      {"measurement": "peptide remaining", "setting": "[4]; 720 min, replicate 1", "value": 109.883},
      {"measurement": "peptide remaining", "setting": "[4]; 720 min, replicate 2", "value": 113.113},
      {"measurement": "peptide remaining", "setting": "[4]; 720 min, replicate 3", "value": 112.463},
      {"measurement": "half-clearance rate in vivo compared with Pep2-JGZ", "setting": "[5]", "value": "slower half-clearance rate"}
    ]},
    {"compound": "CC[C@@]1([C@@H]2O[C@@H]([C@H]3O[C@@](O)(CO)[C@H](C)C[C@@H]3C)C[C@@H]2C)CC[C@H]([C@]2(C)CC[C@]3(C[C@H](O)[C@@H](C)[C@@H]([C@@H](C)[C@@H](OC)[C@H](C)C(=O)O)O3)O2)O1", "note": "[monensin]", "values": [
      {"measurement": "EGFR membrane level", "setting": "[6]", "value": "reduced the EGFR membrane level"}
    ]},
    {"compound": "Nc1nc2[nH]cc(CCc3ccc(C(=O)N[C@@H](CCC(=O)O)C(=O)O)cc3)c2c(=O)[nH]1", "note": "[pemetrexed]", "values": [
      {"measurement": "pIC50", "setting": "A549 cells", "value": 6.61},
      {"measurement": "pIC50", "setting": "NCI-H1975 cells; NCI-H1975, read-out: IC50 of pemetrexed, H1975, sensitized by SAH-JGZ4", "value": 6.10},
      {"measurement": "pIC50", "setting": "NCI-H1975 cells; NCI-H1975, read-out: IC50 of pemetrexed, H1975, before sensitization", "value": 5.50}
    ]}
  ]
}
